Results published in patent US9040528B2, “Chemical compounds 542” (AstraZeneca AB, priority 2008, dated 2015).
Like-named read-outs stand apart in the source and are kept apart here.

Target: Escherichia coli DNA gyrase A/B tetramer (Escherichia coli (strain K12), UniProt P0AES4+P0AES6)
Assay: DNA gyrase supercoiling activity fluorescence polarisation assay
Format: biochemical
Procedure: DNA Gyrase Supercoiling Activity Fluorescence Polarisation Assay
The supercoiling reactions may be quenched by the addition of 10 microliters/well of 40 nM oligodeoxynucleotide probe in 3× triplex-forming buffer consisting of 150 mM NaCl, and 150 mM sodium acetate at pH 3.5. The oligodeoxynucleotide probe may be 5′-BODIPY-FL-labeled […]. After 60 minutes, the fluorescence anisotropy of the BODIPY-FL may be measured in a Tecan Ultra plate reader, using 485 nm excitation and 535 nm emission filters equipped with polarizers. The IC50 may be determined by nonlinear regression using two control reactions. The first contains no test compound but 0.8% DMSO (100% activity) while the second control reaction contains 5 μM Ciprofloxacin and 0.8% DMSO (0% activity).

[1] = 5 nM enzyme, relaxed plasmid, 0.3 mM ATP, ambient temperature, read-out: E. coli DNA gyrase supercoiling IC50

SMILES	IC50 [1]	IC50
C[C@@H]1CN2c3c(nc4c(C(=O)NCc5ccc(C#N)cc5)noc4c3Cl)CC3(C(=O)NC(=O)NC3=O)[C@H]2[C@H](C)O1 (relative stereo) [Example 132, (2R,4S,4aS)-rel-11-chloro-N-(4-cyanobenzyl)-2,4-dimethyl-2′,4′,6′-trioxo-2,2′,3′,4,4a,4′,6,6′-octahydro-1H,1′H-spiro[isoxazolo[4,5-g][1,4]oxazino[4,3-a][1,5]naphthyridine-5,5′-pyrimidine]-8-carboxamide]	7700 nM	–
C[C@@H]1CN2c3c(cc4c(-c5nccn5C)noc4c3Cl)CC3(C(=O)NC(=O)NC3=O)[C@H]2[C@H](C)O1 (relative stereo) [Example 89, (2R,4S,4aS)-rel-11-chloro-2,4-dimethyl-8-(1-methyl-1H-imidazol-2-yl)-1,2,4,4a-tetrahydro-2′H,6H-spiro[1,4-oxazino[4,3-a][1,2]oxazolo[4,5-g]quinoline-5,5′-pyrimidine]-2′,4′,6′(1′H,3′H)-trione]	1300 nM	–
C[C@@H]1CN2c3c(cc4c(-c5ccncn5)noc4c3F)CC3(C(=O)NC(=O)NC3=O)[C@H]2[C@H](C)O1 [Example 74(b), (2R,4S,4aS)-11-fluoro-2,4-dimethyl-8-(pyrimidin-4-yl)-2,4,4a,6-tetrahydro-1H,1′H-spiro[isoxazolo[4,5-g][1,4]oxazino[4,3-a]quinoline-5,5′-pyrimidine]-2′,4′,6′(3′H)-trione]	300 nM	–
C[C@@H]1CN2c3c(cc4c(-c5nccs5)noc4c3F)CC3(C(=O)NC(=O)NC3=O)[C@H]2[C@H](C)O1 [Example 96, (2R,4S,4aS)-11-fluoro-2,4-dimethyl-8-(thiazol-2-yl)-2,4,4a,6-tetrahydro-1H,1′H-spiro[isoxazolo[4,5-g][1,4]oxazino[4,3-a]quinoline-5,5′-pyrimidine]-2′,4′,6′(3′H)-trione]	700 nM	–
C[C@@H]1CN2c3c(cc4c(C(=O)N5CC(F)(F)C5)noc4c3F)CC3(C(=O)NC(=O)NC3=O)[C@H]2[C@H](C)O1 (relative stereo) [Example 95, (2R,4S,4aS)-rel-8-(3,3-difluoroazetidine-1-carbonyl)-11-fluoro-2,4-dimethyl-2,4,4a,6-tetrahydro-1H,1′H-spiro[isoxazolo[4,5-g][1,4]oxazino[4,3-a]quinoline-5,5′-pyrimidine]-2′,4′,6′(3′H)-trione]	300 nM	–
C[C@@H]1CN2c3c(cc4c(C5CC5)noc4c3Cl)CC3(C(=O)NC(=O)NC3=O)[C@H]2[C@H](C)O1 (racemic) [Example 39, (2R,4S,4 aS)-rel-11-chloro-8-cyclopropyl-2,4-dimethyl-1,2,4,4a-tetrahydro-2′H,6H-spiro[1,4-oxazino[4,3-a][1,2]oxazolo[4,5-g]quinoline-5,5′-pyrimidine]-2′,4′,6′(1′H,3′H)-trione]	600 nM	–
C[C@@H]1CN2c3c(cc4c(-c5ccnnc5)noc4c3Cl)CC3(C(=O)NC(=O)NC3=O)[C@H]2[C@H](C)O1 (relative stereo) [Example 45, (2R,4S,4aS)-rel-11-chloro-2,4-dimethyl-8-(pyridazin-4-yl)-1,2,4,4a-tetrahydro-2′H,6H-spiro[1,4-oxazino[4,3-a][1,2]oxazolo[4,5-g]quinoline-5,5′-pyrimidine]-2′,4′,6′(1′H,3′H)-trione]	1600 nM	–
CCCN(C)c1noc2c(F)c3c(cc12)CC1(C(=O)NC(=O)NC1=O)[C@H]1[C@H](C)O[C@H](C)CN31 (relative stereo) [Example 50, (2R,4S,4aS)-rel-11-fluoro-2,4-dimethyl-8-[methyl(propyl)amino]-1,2,4,4a-tetrahydro-2′H,6H-spiro[1,4-oxazino[4,3-a][1,2]oxazolo[4,5-g]quinoline-5,5′-pyrimidine]-2′,4′,6′(1′H,3′H)trione]	500 nM	–
C[C@@H]1CN2c3c(cc4c(N5CCCCC5)noc4c3F)CC3(C(=O)NC(=O)NC3=O)[C@H]2[C@H](C)O1 (relative stereo) [Example 21]	–	2400 nM
C[C@@H]1CN2c3c(cc4c(NCc5cccnc5)noc4c3F)CC3(C(=O)NC(=O)NC3=O)[C@H]2[C@H](C)O1 (relative stereo) [Example 15, (2R,4S,4aS)-rel-11-fluoro-2,4-dimethyl-8-[(pyridin-3-ylmethyl)amino]-1,2,4,4a-tetrahydro-2′H,6H-spiro[1,4-oxazino[4,3-a][1,2]oxazolo[4,5-g]quinoline-5,5′-pyrimidine]-2′,4′,6′(1′H,3′H)-trione]	1000 nM	–
C[C@@H]1CN2c3c(cc4c(NCc5ccccc5)noc4c3F)CC3(C(=O)NC(=O)NC3=O)[C@H]2[C@H](C)O1 (racemic) [Example 9, (2R,4S,4 aS)-rel-8-(benzylamino)-11-fluoro-2,4-dimethyl-1,2,4,4a-tetrahydro-2′H,6H-spiro[1,4-oxazino[4,3-a][1,2]oxazolo[4,5-g]quinoline-5,5′-pyrimidine]-2′,4′,6′(1′H,3′H)-trione]	1700 nM	–
Cc1nc(-c2noc3c(F)c4c(cc23)CC2(C(=O)NC(=O)NC2=O)[C@H]2[C@H](C)O[C@H](C)CN42)co1 (relative stereo) [Example 65, (2R,4S,4aS)-rel-11-fluoro-2,4-dimethyl-8-(2-methyl-1,3-oxazol-4-yl)-1,2,4,4a-tetrahydro-2′H,6H-spiro[1,4-oxazino[4,3-a][1,2]oxazolo[4,5-g]quinoline-5,5′-pyrimidine]-2′,4′,6′(1′H,3′H)-trione]	1100 nM	–
CON(C)C(=O)c1noc2c(F)c3c(cc12)CC1(C(=O)NC(=O)NC1=O)[C@H]1[C@H](C)O[C@H](C)CN31 (relative stereo) [Example 137, (2R,4S,4aS)-rel-11-fluoro-N-methoxy-N,2,4-trimethyl-2′,4′,6′-trioxo-2,2′,3′,4,4a,4′,6,6′-octahydro-1H,1′H-spiro[isoxazolo[4,5-g][1,4]oxazino[4,3-a]quinoline-5,5′-pyrimidine]-8-carboxamide]	2300 nM	–
Cc1nsc2c(F)c3c(cc12)CC1(C(=O)NC(=O)NC1=O)[C@H]1[C@H](C)O[C@H](C)CN31 (relative stereo) [Example 75, (2R,4S,4aS)-rel-11-fluoro-2,4,8-trimethyl-1,2,4,4a-tetrahydro-2′H,6H-spiro[1,4-oxazino[4,3-a][1,2]thiazolo[4,5-g]quinoline-5,5′-pyrimidine]-2′,4′,6′(1′H,3′H)-trione]	200 nM	–
C[C@@H]1CN2c3c(nc4c(-c5cnc(Br)s5)noc4c3Cl)CC3(C(=O)NC(=O)NC3=O)[C@H]2[C@H](C)O1 (relative stereo) [Example 119, (2R,4S,4aS)-rel-11-chloro-2,4-dimethyl-8-(2-bromothiazol-5-yl)-2,4,4a,6-tetrahydro-1H,1′H-spiro[isoxazolo[4,5-g][1,4]oxazino[4,3-a][1,5]naphthyridine-5,5′-pyrimidine]-2′,4′,6′(3′H)-trione]	3100 nM	–
C[C@@H]1CN2c3c(cc4c(-c5cncn5C)noc4c3F)CC3(C(=O)NC(=O)NC3=O)[C@H]2[C@H](C)O1 (relative stereo) [Example 70, (2R,4S,4aS)-rel-11-fluoro-2,4-dimethyl-8-(1-methyl-1H-imidazol-5-yl)-1,2,4,4a-tetrahydro-2′H,6H-spiro[1,4-oxazino[4,3-a][1,2]oxazolo[4,5-g]quinoline-5,5′-pyrimidine]-2′,4′,6′(1′H,3′H)-trione]	500 nM	–
